Measurements reported in ChEMBL document CHEMBL4813945, “Discovery and development of novel pyrimidine and pyrazolo/thieno-fused pyrimidine derivatives as potent and orally active inducible nitric oxide synthase dimerization inhibitor with efficacy for arthritis” (Eur J Med Chem, 2021).

Key:
RAW264.7 [1] = test: Cytotoxicity against mouse RAW264.7 cells at 20 uM measured after 24 hrs; assay type: cell-based; conditions: raw264.7, 24 h
RAW264.7 [2] = test: Antiinflammatory activity against mouse RAW264.7 cells assessed as inhibition of LPS-induced NO production at 10 uM preincubated for 1 hrs followed by LPS stimulation and measured after 24 hrs by Griess assay relative to control; assay type: functional; conditions: time 25 hrs
L02 = test: Antiinflammatory activity against human L02 assessed as inhibition of LPS-induced NO production preincubated for 1 hrs followed by LPS stimulation and measured after 24 hrs by Griess assay relative to control; assay type: functional, cell-based

SMILES	Activity (RAW264.7 [1])	inhibition at 10 µM (RAW264.7 [2]) [%]	IC50 (L02) [µM]
CCCc1nn(C)c2c(N3CCOCC3)nc(/C=C/c3cccnc3)nc12	Non-Toxic	69.9	535
CC(C)Nc1nc(/C=C/c2ccccc2)nc2ccsc12	Non-Toxic	22.9	> 1000
C(=C\c1nc(Nc2ccccc2)c2sccc2n1)/c1ccccc1	Non-Toxic	21	> 1000
CCCc1nn(C)c2c(NCCc3ccccc3)nc(/C=C/c3ccc[n+]([O-])c3)nc12	Non-Toxic	72.9	392
CCCc1nn(C)c2c(N3CCS(=O)(=O)CC3)nc(CCc3cccnc3)nc12	Non-Toxic	15.6	> 1000
C(=C\c1nc(N2CCOCC2)c2sccc2n1)/c1ccccc1	Non-Toxic	34.1	> 1000
COc1cc(/C=C/c2nc(NCc3ccco3)c3sccc3n2)cc(OC)c1OC	Non-Toxic	46.5	189
COc1cc(/C=C/c2nc(Nc3ccc(C)cc3)c3sccc3n2)cc(OC)c1OC	Non-Toxic	19.2	< 40
Fc1ccc(CNc2nc(/C=C/c3ccco3)nc3ccsc23)cc1	Non-Toxic	59.2	> 1000
CN(c1ccccc1)c1nc(/C=C/c2ccccc2)nc2ccsc12	Non-Toxic	24.9	> 1000
COc1cc(/C=C/c2nc(NCCc3ccc(F)cc3)c3sccc3n2)cc(OC)c1OC	Non-Toxic	26.9	< 40
COc1cc(/C=C/c2nc(NC(C)C)c3sccc3n2)cc(OC)c1OC	Non-Toxic	59.1	> 1000
CCCc1nn(C)c2c(NC(C)C)nc(/C=C/c3nc(C)c(C)nc3C)nc12	Non-Toxic	54.8	342
CCCc1nn(C)c2c(NCc3ccc(F)cc3)nc(CCc3cccnc3)nc12	Non-Toxic	18.8	< 40
Fc1ccccc1CNc1nc(/C=C/c2ccco2)nc2ccsc12	Non-Toxic	11.7	> 1000
CCCCNc1nc(/C=C/c2ccccc2)nc2ccsc12	Non-Toxic	22.4	> 1000
CCCc1nn(C)c2c(NC(C)C)nc(/C=C/c3cccnc3)nc12	Non-Toxic	74.2	574
CCN1CCN(c2nc(/C=C/c3cc(OC)c(OC)c(OC)c3)nc3ccsc23)CC1	Non-Toxic	46.7	> 1000
COc1cc(/C=C/c2nccc(NCCc3ccc(F)cc3)n2)cc(OC)c1OC	Non-Toxic	47	544
CCCc1nn(C)c2c(NC3CC3)nc(/C=C/c3nc(C)c(C)nc3C)nc12	Non-Toxic	48.4	706
C(=C\c1ccco1)/c1nc(NCc2ccccc2)c2sccc2n1	Non-Toxic	64.1	> 1000
C(=C\c1ccco1)/c1nc(NC2CC2)c2sccc2n1	Non-Toxic	33.3	> 1000
COc1cc(/C=C/c2nc(O)nc(NCCc3ccccc3)n2)cc(OC)c1OC	Non-Toxic	57	< 40
CN1CCN(c2nc(/C=C/c3ccco3)nc3ccsc23)CC1	Non-Toxic	43.9	> 1000
CCCc1nn(C)c2c(NCc3ccc(F)cc3)nc(/C=C/c3nc(C)c(C)nc3C)nc12	Non-Toxic	63.4	> 1000

SMILES	Activity (RAW264.7 [1])	inhibition at 10 µM (RAW264.7 [2]) [%]	IC50 (L02) [µM]
CC(C)c1ccc(Nc2nc(/C=C/c3ccco3)nc3ccsc23)cc1	Non-Toxic	31.7	> 1000
COc1cc(/C=C/c2nc(O)nc(NC(C)C)n2)cc(OC)c1OC	Non-Toxic	34	< 40
CCCc1nn(C)c2c(NCCc3cccc(Cl)c3)nc(/C=C/c3cccnc3)nc12	Non-Toxic	66.7	> 1000
CCCc1nn(C)c2c(NCc3ccc(F)cc3)nc(/C=C/c3ccc[n+]([O-])c3)nc12	Non-Toxic	64.6	< 40
CCCc1nn(C)c2c(N3CCS(=O)(=O)CC3)nc(/C=C/c3cccnc3)nc12	Non-Toxic	60.2	472
CCCc1nn(C)c2c(NCCc3cccc(Cl)c3)nc(/C=C/c3ccc[n+]([O-])c3)nc12	Non-Toxic	37.5	162
COc1cc(/C=C/c2nccc(NCCc3ccccc3)n2)cc(OC)c1OC	Non-Toxic	85	< 40
COc1cc(/C=C/c2nc(N3CCOCC3)c3sccc3n2)cc(OC)c1OC	Non-Toxic	12.2	> 1000
COc1cc(/C=C/c2nc(N(C)C)c3sccc3n2)cc(OC)c1OC	Non-Toxic	27.2	> 1000
COc1cc(/C=C/c2nc(O)nc(NCCc3ccc(F)cc3)n2)cc(OC)c1OC	Non-Toxic	36.5	483
CCCc1nn(C)c2c(N3CCOCC3)nc(/C=C/c3nc(C)c(C)nc3C)nc12	Non-Toxic	74.2	370
Brc1cccc(Nc2nc(/C=C/c3ccccc3)nc3ccsc23)c1	Non-Toxic	28.8	> 1000
CCCc1nn(C)c2c(N3CCS(=O)(=O)CC3)nc(/C=C/c3nc(C)c(C)nc3C)nc12	Non-Toxic	51.6	< 40
COc1cc(/C=C/c2nc(NCCc3ccccc3)c3sccc3n2)cc(OC)c1OC	Non-Toxic	46.2	< 40
CNc1nc(/C=C/c2ccco2)nc2ccsc12	Non-Toxic	29.1	811
CCCc1nn(C)c2c(NC3CC3)nc(/C=C/c3ccc[n+]([O-])c3)nc12	Non-Toxic	29.2	580
FC(F)(F)c1ccc(Nc2nc(/C=C/c3ccccc3)nc3ccsc23)cc1	Non-Toxic	30.1	> 1000
CNc1nc(/C=C/c2cc(OC)c(OC)c(OC)c2)nc2ccsc12	Non-Toxic	39.5	> 1000
CCCc1nn(C)c2c(NCCc3ccccc3)nc(/C=C/c3nc(C)c(C)nc3C)nc12	Non-Toxic	52.7	< 40
CCCc1nn(C)c2c(NC(C)C)nc(/C=C/c3ccc[n+]([O-])c3)nc12	Non-Toxic	45.8	324
COc1cccc(CNc2nc(/C=C/c3ccccc3)nc3ccsc23)c1	Non-Toxic	30.7	> 1000
COc1cc(/C=C/c2nc(NCc3ccccc3Cl)c3sccc3n2)cc(OC)c1OC	Non-Toxic	21.9	> 1000
Fc1ccccc1CCNc1nc(/C=C/c2ccccc2)nc2ccsc12	Non-Toxic	29.8	> 1000
CC(C)CNc1nc(/C=C/c2ccccc2)nc2ccsc12	Non-Toxic	25	> 1000
Clc1ccc(CNc2nc(/C=C/c3ccco3)nc3ccsc23)cc1	Non-Toxic	13	> 1000
